{"source": "paper PMC5473807", "about": "“Distribution and kinetics of the Kv1.3-blocking peptide HsTX1[R14A] in experimental rats” (Scientific Reports, 2017)", "target": "T1, mKv1.3 (Mus musculus, UniProt P16390)", "T1 construct": "expressed in transfected cells", "assay": "Whole-cell patch-clamp block of Kv1.3 currents", "assay_type": "cell-based", "settings": "L929 mouse fibroblasts stably expressing mKv1.3, room temperature, peak current at 40 mV, Hill fit, n = 3 cells per concentration, read-out: IC50 against Kv1.3", "procedure": "L929 mouse fibroblast cells stably expressing mKv1.3[32] were gifts from Dr. K. George Chandy (University of California, Irvine). They were maintained in DMEM medium (Invitrogen, Carlsbad, CA) supplemented with 100 IU/mL penicillin, […] streptomycin, 2 mM L-glutamine, 10% heat-inactivated foetal bovine serum, and 0.5 mg/mL G418 (EMD Chemicals, Gibbstown, NJ).\nElectrophysiology experiments were conducted at room temperature in the whole-cell configuration of the patch-clamp technique on a Port-a-Patch setup (Nanion, North Brunswick, NJ) linked to a HEKA EPC10USB amplifier (HEKA Instruments, Bellmore, NY). A holding potential of −80 mV was used for all recordings. Pipette resistances averaged 2.0 MΩ when filled with internal solution containing (in mM): 145 KF, 10 HEPES, 10 EGTA, and 2 MgCl2, pH 7.2, 290 mOsm. Kv currents were elicited every 30 s by 200-ms depolarising pulses from a holding potential of −80 mV to 40 mV. Kv1.3 currents were recorded in normal Ringer solution containing (in mM): 160 NaCl, 4.5 KCl, 2 CaCl2, 1 MgCl2, and 10 HEPES, pH 7.2, 300 mOsm. IC50 values and Hill coefficients were determined by fitting the Hill equation to the reduction of peak current by the drug at 40 mV.\nFigure S2. […] (a) Whole-cell Kv1.3 currents measured by whole-cell patch-clamp in stably transfected L929 fibroblasts before (control) and after perfusion of 10 pM and 100 nM NOTA-HsTX1[R14A]. […]"}
{"compound": "CSCC[C@@H]1NC(=O)[C@@H]2CSSC[C@H](NC(=O)[C@H](CO)NC(=O)[C@H](C)NC(=O)COCCOCCNC(=O)CN3CCN(CC(=O)O)CCN(CC(=O)O)CC3)C(=O)N[C@@H](CCCNC(=N)N)C(=O)N[C@@H]([C@@H](C)O)C(=O)N3CCC[C@H]3C(=O)N[C@@H](CCCCN)C(=O)N[C@@H](CC(=O)O)C(=O)N[C@H]3CSSC[C@H](NC(=O)[C@H](CCCCN)NC(=O)[C@H](CCCNC(=N)N)NC(=O)[C@H](CC(N)=O)NC1=O)C(=O)N[C@@H](CCCCN)C(=O)N[C@H]1CSSC[C@H](NC(=O)[C@@H]4CCCN4C(=O)[C@H](CC(=O)O)NC(=O)[C@H](C)NC3=O)C(=O)N[C@@H](C)C(=O)N[C@@H](CCCCN)C(=O)N[C@@H](CCC(=O)O)C(=O)N[C@@H]([C@@H](C)O)C(=O)NCC(=O)N[C@@H](CSSC[C@@H](C(N)=O)NC(=O)[C@H](CCCNC(=N)N)NC(=O)[C@H](CC(N)=O)NC1=O)C(=O)N1CCC[C@H]1C(=O)N[C@@H](Cc1ccc(O)cc1)C(=O)NCC(=O)N[C@@H](CCCCN)C(=O)N2", "note": "[NOTA-HsTX1[R14A]]", "values": [{"measurement": "IC50", "result": "0.068 ± 0.012", "unit": "nM"}]}
